Tested on: hémolysines anti-B
Assay: Neutralisation of anti-B haemolysins: inhibition of one agglutinating dose of an anti-B test serum (European Pharmacopoeia techniques)
Format: biochemical
Conditions: dilution 1/5 of a 10 mg/ml solution
Description: On utilise une solution à 10 mg/ml du produit de formule XXVI.

## C[C@@H]1O[C@@H](O[C@H]2[C@H](OCCCOCCCN)O[C@H](CO)[C@H](O)[C@@H]2O[C@H]2O[C@H](CO)[C@H](O)[C@H](O)[C@H]2O)[C@@H](O)[C@H](O)[C@@H]1O [trisaccharide XXVI]
  inhibition d'une dose agglutinante d'un sérum-test anti-B: inhibition totale
